Measured values published in PubChem BioAssay AID743350 (Broad Institute, 2014).
Activity calls are given as the source filed them. How the calls were made is not given here.

Test system: M. tuberculosis wild type, biotin-free medium, growth
Test: growth inhibition of wild-type M. tuberculosis, biotin-free medium, single point, dry powder (AID 743350)

Compound	IC90
CC(C)NC(=O)N1CC[C@@H]2[C@@H](CO)N(C)c3ccc(-c4cccc(F)c4)cc3[C@@H]21	> 50 µM (inactive)
CC(=O)c1ccc(N2CCN(C(=O)c3ccccc3Cl)CC2)cc1	> 50 µM (inactive)
CN1c2ccc(-c3ccc(F)cc3)cc2[C@H]2[C@H](CCN2C(=O)Nc2cc(F)ccc2F)[C@H]1CO	> 50 µM (inactive)
CC(C)NC(=O)N1CC[C@@H]2[C@@H](CO)N(C)c3ccc(-c4ccc(F)cc4)cc3[C@@H]21	> 50 µM (inactive)
CNC(=O)c1ccc(N2CCN(C(=O)c3ccc4c(c3)OCO4)CC2)cc1	> 50 µM (inactive)
CN1c2ccc(-c3ccc(F)cc3)cc2[C@H]2[C@H](CCN2C(=O)Cc2ccccn2)[C@H]1CO	> 50 µM (inactive)
COc1ccc(NC(=O)N2CC[C@@H]3[C@@H](CO)N(C)c4ccc(-c5cccc(F)c5)cc4[C@@H]32)cc1	> 50 µM (inactive)
CC(=O)c1ccc(N2CC3(CN(C(=O)c4ccc5c(c4)OCO5)C3)C2)cc1	> 50 µM (inactive)
CC(=O)c1ccc(NCCNC(=O)c2ccc3c(c2)OCO3)cc1	> 50 µM (inactive)
COc1ccccc1NC(=O)N1CC[C@@H]2[C@@H](CO)N(C)c3ccc(-c4cccc(F)c4)cc3[C@@H]21	> 50 µM (inactive)
CN1c2ccc(-c3cccc(F)c3)cc2[C@@H]2[C@@H](CCN2C(=O)c2ccc3c(c2)OCO3)[C@H]1CO	> 50 µM (inactive)
CCCCCCCC(=O)N1CC[C@@H]2[C@@H](CO)N(C)c3ccc(-c4cccc(F)c4)cc3[C@@H]21	> 50 µM (inactive)
CC(=O)c1ccc(N2CCN(C(=O)c3ccc4c(c3)OCO4)[C@H](C)C2)cc1	27.3 µM
COc1ccccc1NC(=O)N1CC[C@@H]2[C@@H](CO)N(C)c3ccc(-c4ccc(F)cc4)cc3[C@@H]21	> 50 µM (inactive)
CN1c2ccc(-c3ccc(F)cc3)cc2[C@H]2[C@H](CCN2C(=O)Nc2ccc(F)cc2)[C@H]1CO	> 50 µM (inactive)
CN1c2ccc(-c3cccc(F)c3)cc2[C@H]2[C@H](CCN2C(=O)Cc2ccccc2)[C@H]1CO	> 50 µM (inactive)
CN1c2ccc(-c3cccc(F)c3)cc2[C@H]2[C@H](CCN2C(=O)Cc2cccnc2)[C@H]1CO	> 50 µM (inactive)

Compound	IC90
CC(=O)c1ccc(N2CCN(C(=O)c3ccc4c(c3)OCO4)CC2)cc1	39.7 µM
CCC(=O)N1CC[C@@H]2[C@@H](CO)N(C)c3ccc(-c4ccc(F)cc4)cc3[C@@H]21	> 50 µM (inactive)
COc1cccc(NC(=O)N2CC[C@@H]3[C@@H](CO)N(C)c4ccc(-c5cccc(F)c5)cc4[C@@H]32)c1	> 50 µM (inactive)
CNS(=O)(=O)c1ccc(N2CCN(C(=O)c3ccc4c(c3)OCO4)CC2)cc1	> 50 µM (inactive)
COc1ccc(NC(=O)N2CC[C@@H]3[C@@H](CO)N(C)c4ccc(-c5ccc(F)cc5)cc4[C@@H]32)cc1	> 50 µM (inactive)
CCCNC(=O)N1CC[C@@H]2[C@@H](CO)N(C)c3ccc(-c4ccc(F)cc4)cc3[C@@H]21	> 50 µM (inactive)
CN1c2ccc(-c3cccc(F)c3)cc2[C@H]2[C@H](CCN2C(=O)CCCCCCC(=O)O)[C@H]1CO	> 50 µM (inactive)
COc1ccccc1C(=O)N1CCN(c2ccc(C(C)=O)cc2)CC1	> 50 µM (inactive)
CC(=O)c1ccc(N2CCN(C(=O)c3ccccc3F)CC2)cc1	> 50 µM (inactive)
CN(C)C(=O)c1ccc(N2CCN(C(=O)c3ccc4c(c3)OCO4)CC2)cc1	> 50 µM (inactive)
COC(=O)CCCCCCC(=O)N1CC[C@@H]2[C@@H](CO)N(C)c3ccc(-c4cccc(F)c4)cc3[C@@H]21	> 50 µM (inactive)
CN1c2ccc(-c3cccc(F)c3)cc2[C@H]2[C@H](CCN2C(=O)c2ccc3c(c2)OCO3)[C@@H]1CO	> 50 µM (inactive)
CN1c2ccc(-c3cccc(F)c3)cc2[C@H]2[C@H](CCN2C(=O)CCCCCCN)[C@H]1CO	> 50 µM (inactive)
CN1c2ccc(-c3cccc(F)c3)cc2[C@@H]2[C@@H](CCN2C(=O)c2ccc3c(c2)OCO3)[C@@H]1CO	> 50 µM (inactive)
CN1c2ccc(-c3cccc(F)c3)cc2[C@H]2[C@H](CCN2C(=O)Nc2ccccc2F)[C@H]1CO	> 50 µM (inactive)
COCC(=O)N1CC[C@@H]2[C@@H](CO)N(C)c3ccc(-c4cccc(F)c4)cc3[C@@H]21	> 50 µM (inactive)
CN1c2ccc(-c3ccc(F)cc3)cc2[C@H]2[C@H](CCN2C(=O)Cc2cccnc2)[C@H]1CO	> 50 µM (inactive)
